Results as given in patent publication US10167262B2, “Herbicidal substituted 3-arylpyrazoles” (FMC CORPORATION, priority 2014, dated 2019).

Assays:
Assay type in all cases: in vivo
rice (Oryza sativa) = test: Test B flooded paddy test, plant response rating 0-100; details: Flood, 250 g ai/ha; scale 0 to 100 (0 no effect, 100 complete control); 13 to 15 days
Procedure, shortened: (§1)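 In-water treatment: compound dosed into 3 cm flood over soil, water level unchanged throughout. Controls run alongside; visual assessment at day 13–15.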

[1] = test system: ducksalad (Heteranthera limosa); test: as above; details: Flood, 250 g ai/ha; scale 0 to 100 (0 no effect, 100 complete control); 13 to 15 days
Procedure, shortened: as §1

[2] = test system: barnyardgrass (Echinochloa crus-galli); test: as above; details: Flood, 250 g ai/ha; scale 0 to 100 (0 no effect, 100 complete control); 13 to 15 days
Procedure, shortened: as §1

[3] = test system: sedge, umbrella (small-flower umbrella sedge, Cyperus difformis); test: as above; details: Flood, 250 g ai/ha; scale 0 to 100 (0 no effect, 100 complete control); 13 to 15 days
Procedure, shortened: as §1

[4] = test system: waterhemp_RES1, (ALS & Triazine resistant common waterhemp, Amaranthus rudis); test: Test E postemergence greenhouse test, plant response rating 0-100; details: scale 0 to 100
Procedure, shortened: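 Visual ratings, 0 (no effect) to 100 (complete control), made versus controls 14–21 days after postemergence application in the greenhouse. Plants were at 1- to 4-leaf stage (2–18 cm) in peat moss/vermiculite potting medium.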

[5] = test system: bermudagrass (Cynodon dactylon); test: Test C postemergence greenhouse test, plant response rating 0-100; details: for Plant response rating, Bermudagrass: scale 0 to 100
Procedure, shortened: (§2)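 Postemergence spray onto 1–4-leaf potted seedlings, greenhouse incubation 13–15 days. Visual percent-control rating (0–100) against untreated plants.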

[6] = test system: green foxtail (Setaria viridis); test: as above; details: for Plant response rating, Foxtail, Green: scale 0 to 100
Procedure, shortened: as §2

[7] = test system: downy bromegrass (Bromus tectorum); test: as above; details: for Plant response rating, Bromegrass, Downy: scale 0 to 100
Procedure, shortened: as §2

[8] = test system: surinam grass (Brachiaria decumbens); test: as above; details: for Plant response rating, Surinam Grass: scale 0 to 100
Procedure, shortened: as §2

[9] = test system: winter barley (Hordeum vulgare); test: as above; details: for Plant response rating, Barley: scale 0 to 100
Procedure, shortened: as §2

[10] = test system: windgrass (Apera spica-venti); test: as above; details: for Plant response rating, Windgrass: scale 0 to 100
Procedure, shortened: as §2

**Q.** COC(OC)(c1ccccc1)c1c[nH]nc1-c1cc(Cl)cc(Cl)c1 [Compound 13, 3-(3,5-dichlorophenyl)-4-(dimethoxyphenylmethyl)-1H-pyrazole] was tested. Which “Plant response rating, Rice” value (rice (Oryza sativa)) did it give?
**A.** 0

**Q.** What about the “Plant response rating, Ducksalad” value [1] of the same compound?
**A.** 0

**Q.** What about the “Plant response rating, Barnyardgrass” value [2] of the same compound?
**A.** 0

**Q.** And the “Plant response rating, Sedge, Umbrella” value [3]?
**A.** 0

**Q.** And the “Plant response rating, Waterhemp_RES1” value ([4]; 125 g ai/ha)?
**A.** 90

**Q.** And the “Plant response rating, Waterhemp_RES1” value ([4]; 500 g ai/ha)?
**A.** 100

**Q.** Which results are given for CCOC(OCC)(c1ccccc1)c1c[nH]nc1-c1cc(Cl)cc(Cl)c1 [Compound 14, 3-(3,5-dichlorophenyl)-4-(diethoxyphenylmethyl)-1H-pyrazole]?
**A.** Plant response rating, Rice (rice (Oryza sativa)): 0; Plant response rating, Ducksalad [1]: 0; Plant response rating, Barnyardgrass [2]: 0; Plant response rating, Sedge, Umbrella [3]: 0; Plant response rating, Waterhemp_RES1 ([4]; 31 g ai/ha): 90; Plant response rating, Waterhemp_RES1 ([4]; 62 g ai/ha): 95; Plant response rating, Waterhemp_RES1 ([4]; 125 g ai/ha): 95; Plant response rating, Waterhemp_RES1 ([4]; 250 g ai/ha): 100; Plant response rating, Waterhemp_RES1 ([4]; 500 g ai/ha): 100

**Q.** With CCn1cc(C(=O)c2cccs2)c(-c2cc(Cl)cc(Cl)c2)n1 [Compound 18] as the compound, how does the “Plant response rating (0 to 100), Bermudagrass” value ([5]; 62 g ai/ha) read?
**A.** 0

**Q.** What about the “Plant response rating, Bermudagrass” value ([5]; 125 g ai/ha) of the same compound?
**A.** 0

**Q.** What about the “Plant response rating, Bermudagrass” value ([5]; 250 g ai/ha) of the same compound?
**A.** 0

**Q.** And the “Plant response rating, Bermudagrass” value ([5]; 500 g ai/ha)?
**A.** 5

**Q.** What about the “Plant response rating (0 to 100), Foxtail, Green” value ([6]; 62 g ai/ha) of the same compound?
**A.** 0

**Q.** What about the “Plant response rating (0 to 100), Foxtail, Green” value ([6]; 125 g ai/ha) of the same compound?
**A.** 0

**Q.** What about the “Plant response rating, Foxtail, Green” value ([6]; 250 g ai/ha) of the same compound?
**A.** 0

**Q.** And the “Plant response rating, Foxtail, Green” value ([6]; 500 g ai/ha)?
**A.** 0

**Q.** What about the “Plant response rating (0 to 100), Bromegrass, Downy” value ([7]; 62 g ai/ha) of the same compound?
**A.** 0

**Q.** What about the “Plant response rating, Bromegrass, Downy” value ([7]; 125 g ai/ha) of the same compound?
**A.** 0

**Q.** And the “Plant response rating, Bromegrass, Downy” value ([7]; 250 g ai/ha)?
**A.** 0

**Q.** And the “Plant response rating, Bromegrass, Downy” value ([7]; 500 g ai/ha)?
**A.** 0

**Q.** And the “Plant response rating (0 to 100), Surinam Grass” value ([8]; 62 g ai/ha)?
**A.** 5

**Q.** And the “Plant response rating (0 to 100), Surinam Grass” value ([8]; 125 g ai/ha)?
**A.** 5

**Q.** What about the “Plant response rating, Surinam Grass” value ([8]; 250 g ai/ha) of the same compound?
**A.** 10

**Q.** And the “Plant response rating, Surinam Grass” value ([8]; 500 g ai/ha)?
**A.** 10

**Q.** And the “Plant response rating (0 to 100), Barley” value ([9]; 62 g ai/ha)?
**A.** 0

**Q.** What about the “Plant response rating, Barley” value ([9]; 125 g ai/ha) of the same compound?
**A.** 0

**Q.** What about the “Plant response rating, Barley” value ([9]; 250 g ai/ha) of the same compound?
**A.** 0

**Q.** What about the “Plant response rating, Barley” value ([9]; 500 g ai/ha) of the same compound?
**A.** 0

**Q.** And the “Plant response rating (0 to 100), Windgrass” value ([10]; 62 g ai/ha)?
**A.** 0

**Q.** What about the “Plant response rating (0 to 100), Windgrass” value ([10]; 125 g ai/ha) of the same compound?
**A.** 0

**Q.** What about the “Plant response rating, Windgrass” value ([10]; 250 g ai/ha) of the same compound?
**A.** 0

**Q.** What about the “Plant response rating, Windgrass” value ([10]; 500 g ai/ha) of the same compound?
**A.** 5

**Q.** And the “Plant response rating, Waterhemp_RES1” value ([4]; 31 g ai/ha)?
**A.** 60

**Q.** And the “Plant response rating, Waterhemp_RES1” value ([4]; 62 g ai/ha)?
**A.** 70

**Q.** What about the “Plant response rating, Waterhemp_RES1” value ([4]; 125 g ai/ha) of the same compound?
**A.** 85

**Q.** What about the “Plant response rating, Waterhemp_RES1” value ([4]; 250 g ai/ha) of the same compound?
**A.** 95

**Q.** What about the “Plant response rating, Waterhemp_RES1” value ([4]; 500 g ai/ha) of the same compound?
**A.** 95
